This is an account of results in patent US8067589B2, “Heterocyclic compounds useful in treating diseases and conditions” (Pfizer Inc, priority 2007, dated 2011).

pIC50: −log10 of the molar value. Some results are limits rather than exact numbers.

The target of the assay is human recombinant H-PGDS (Homo sapiens, UniProt O60760). Nature of the assay: Fluoresecence Intensity h-PGDSTBA Enzyme Assay. The settings on record: IC50, 5.0 μM PGH2, 2.5 mM L-Glutathione, 10 min preincubation, 4-parameter fit, highest inhibitor concentration typically 1 μM.
Sequence of human recombinant H-PGDS (O60760 whole entry): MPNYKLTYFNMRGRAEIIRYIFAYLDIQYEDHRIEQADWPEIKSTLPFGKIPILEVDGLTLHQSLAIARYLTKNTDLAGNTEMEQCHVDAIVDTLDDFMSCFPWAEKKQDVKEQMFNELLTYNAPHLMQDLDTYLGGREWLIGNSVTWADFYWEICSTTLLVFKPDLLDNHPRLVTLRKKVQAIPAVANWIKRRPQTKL
Take `CC(C)(C)C(=O)N1CC(NC(=O)c2cnc(-c3cccc(F)c3)nc2)C1` [Example 106, N-[1-(2,2-Dimethylpropanoyl)azetidin-3-yl]-2-(3-fluorophenyl)pyrimidine-5-carboxamide]: the pIC50 – broadly, the negative decadic logarithm of the IC50, by convention in mol/L – was 8.53.

In the case of `O=C(NC1CCN(C(COc2cc(F)c(F)c(F)c2)c2ccccc2)CC1)c1cnc(-c2cccc(F)c2)nc1` (stereo not drawn) [Example 50, 2-(3-Fluorophenyl)-N-{1-[1-phenyl-2-(3,4,5-trifluorophenoxy)ethyl]piperidin-4-yl}pyrimidine-5-carboxamide], the pIC50 is 8.02. In the case of `CC(C)N1CCC(NC(=O)c2cnc(-c3ccccc3)nc2)CC1` [Example 13, N-(1-Isopropylpiperidin-4-yl)-2-phenyl-pyrimidine-5-carboxamide] it was 8.20; in that of `Cc1ccc(OCC(c2ccccc2)N2CCC(NC(=O)c3cnc(-c4cccc(F)c4)nc3)CC2)cc1C` (stereo not drawn) [Example 56, N-{1-[2-(3,4-Dimethylphenoxy)-1-phenylethyl]piperidin-4-yl}-2-(3-fluorophenyl)pyrimidine-5-carboxamide], 7.85; in that of `CC(C)CN1CCC(NC(=O)c2cnc(-c3ccccc3)nc2)CC1` [Example 11, N-(1-Isobutylpiperidin-4-yl)-2-phenyl-pyrimidine-5-carboxamide], 9.42. In the case of `O=C(NC1CCN(Cc2ccccn2)CC1)c1cnc(-c2cccc(CO)c2)nc1` [Example 159, 2-[3-(Hydroxymethyl)phenyl]-N-[1-(pyridin-2-ylmethyl)piperidin-4-yl]pyrimidine-5-carboxamide] it was 5.69; in that of `O=C(NC1CCN(CC(F)(F)F)CC1)c1cnc(-c2cc(F)ccc2F)nc1` [Example 73, 2-(2,5-Difluorophenyl)-N-[1-(2,2,2-trifluoroethyl)piperidin-4-yl]pyrimidine-5-carboxamide], 8.74. In the case of `CC(C)(C)OC(=O)N1C[C@H](O)[C@H](NC(=O)c2cnc(-c3cccc(F)c3)nc2)C1` (relative stereo) [Example 94, cis-tert-Butyl 3-(2-(3-fluorophenyl)pyrimidine-5-carboxamido)-4-hydroxypyrrolidine-1-carboxylate] it was 8.85. `O=C(NC1CCN(C(COc2ccc(F)cc2F)c2ccccc2)CC1)c1cnc(-c2cccc(F)c2)nc1` (stereo not drawn) [Example 47, N-{1-[2-(2,4-Difluorophenoxy)-1-phenylethyl]piperidin-4-yl}-2-(3-fluorophenyl)pyrimidine-5-carboxamide]: the negative logarithm of the IC50 (pIC50) was 7.99.

In the case of `O=C(NC1CCN(Cc2ccccn2)CC1)c1cnc(-c2ccccc2)nc1` [Example 8, 2-Phenyl-N-[1-(pyridin-2-ylmethyl)piperidin-4-yl] pyrimidine-5-carboxamide], the negative logarithm of the IC50 (pIC50) was 9.34.

Consider `O=C(NC1CCN(c2ncc3c(n2)CCC3)C1)c1cnc(-c2cccc(F)c2)nc1` (stereo not drawn) [Example 89, N-[1-(6,7-Dihydro-5H-cyclopenta[d]pyrimidin-2-yl)pyrrolidin-3-yl]-2-(3-fluorophenyl)pyrimidine-5-carboxamide], for which the pIC50 was 9.83. In the case of `CCOC(=O)N1CCC(NC(=O)c2cnc(-c3ccccc3)nc2C)CC1` [Example 6, Ethyl 4-{[(4-methyl-2-phenylpyrimidin-5-yl)carbonyl]amino)} piperidine-1-carboxylate] it was 8.18. In the case of `O=C(NC1CN(c2nnnn2-c2ccccc2)C1)c1cnc(-c2cccc(F)c2)nc1` [Example 104, 2-(3-Fluorophenyl)-N-[1-(1-phenyl-1H-tetrazol-5-yl)azetidin-3-yl]pyrimidine-5-carboxamide] it was 9.15; in that of `O=C(NC1CCN(Cc2ccc(OC(F)(F)F)cc2)CC1)c1cnc(-c2cccc(F)c2)nc1` [Example 36, 2-(3-Fluorophenyl)-N-{1-[4-(trifluoromethoxy)benzyl]piperidin-4-yl}pyrimidine-5-carboxamide], 8.34; in that of `O=C(NC1CCN(C(COc2ccc(F)c(F)c2)c2ccccc2)CC1)c1cnc(-c2cccc(F)c2)nc1` (stereo not drawn) [Example 49, N-{1-[2-(3,4-Difluorophenoxy)-1-phenylethyl]piperidin-4-yl}-2-(3-fluorophenyl)pyrimidine-5-carboxamide], 8.20. On to `CN1CCc2nc(N3CCC(NC(=O)c4cnc(-c5cccc(F)c5)nc4)C3)ncc2C1` (stereo not drawn) [Example 78, 2-(3-Fluorophenyl)-N-[1-(6-methyl-5,6,7,8-tetrahydropyrido[4,3-d]pyrimidin-2-yl)pyrrolidin-3-yl]pyrimidine-5-carboxamide], for which the negative logarithm of the IC50 (pIC50) is 9.42.

With `CCOC(=O)N1CCC(NC(=O)c2cnc(-c3cc(F)ccc3F)nc2)CC1` [Example 74, Ethyl 4-({[2-(2,5-difluorophenyl)pyrimidin-5-yl]carbonyl}amino)piperidine-1-carboxylate], the pIC50 is 8.49.

`CC(C)N1CCC(NC(=O)c2cnc(-c3ccccc3)nc2O)CC1` [Example 24, 4-Hydroxy-N-(1-isopropylpiperidin-4-yl)-2-phenyl pyrimidine-5-carboxamide]: the pIC50 is not above 6.00. `CCOC(=O)N1CCC(NC(=O)c2cnc(-c3cccc(F)c3)nc2)C1` (stereo not drawn) [Example 82, Ethyl 3-({[2-(3-fluorophenyl)pyrimidin-5-yl]carbonyl}amino)pyrrolidine-1-carboxylate]: the pIC50 was 9.18. With `O=C(NC1CCN(C(COc2cc(F)cc(F)c2)c2ccccc2)CC1)c1cnc(-c2cccc(F)c2)nc1` (stereo not drawn) [Example 34, N-{1-[2-(3,5-Difluorophenoxy)-1-phenylethyl]piperidin-4-yl}-2-(3-fluorophenyl)pyrimidine-5-carboxamide] the figure was 8.19; with `Cc1nc(N2CCC(NC(=O)c3cnc(-c4cccc(F)c4)nc3)CC2)[nH]c(=O)c1CCO` [Example 60, 2-(3-Fluorophenyl)-N-{1-[5-(2-hydroxyethyl)-4-methyl-6-oxo-1,6-dihydropyrimidin-2-yl]piperidin-4-yl}pyrimidine-5-carboxamide], 8.99. In the case of `CCCN1CCC(NC(=O)c2cnc(-c3ccccc3)nc2)CC1` [Example 10, 2-Phenyl-N-(1-propylpiperidin-4-yl) pyrimidine-5-carboxamide], the negative logarithm of the IC50 (pIC50) is 8.70. With `O=C(NC1CCN(C(COc2cccc(Cl)c2)c2ccccc2)CC1)c1cnc(-c2cccc(F)c2)nc1` (stereo not drawn) [Example 41, N-{1-[2-(3-Chlorophenoxy)-1-phenylethyl]piperidin-4-yl}-2-(3-fluorophenyl)pyrimidine-5-carboxamide] the figure was 7.99. For `O=C(NC1CCN(c2ccc(C(=O)N3CCOCC3)cn2)CC1)c1cnc(-c2cc(F)ccc2F)nc1` [Example 75, 2-(2,5-Difluorophenyl)-N-{1-[5-(morpholin-4-ylcarbonyl)pyridin-2-yl]piperidin-4-yl}pyrimidine-5-carboxamide], the negative logarithm of the IC50 (pIC50) was 7.74. With `Cc1cc(OCC(c2ccccc2)N2CCC(NC(=O)c3cnc(-c4cccc(F)c4)nc3)CC2)ccc1F` (stereo not drawn) [Example 45, N-{1-[2-(4-Fluoro-3-methylphenoxy)-1-phenylethyl]piperidin-4-yl}-2-(3-fluorophenyl)pyrimidine-5-carboxamide] the figure was 7.85; with `O=C(NC1CCN(C(COc2ccc(F)cc2)c2ccccc2)CC1)c1cnc(-c2cccc(F)c2)nc1` (stereo not drawn) [Example 44, N-{1-[2-(4-Fluorophenoxy)-1-phenylethyl]piperidin-4-yl}-2-(3-fluorophenyl)pyrimidine-5-carboxamide], 7.79; with `O=C(NC1CCN(Cc2ccccn2)CC1)c1cnc(-c2ccccc2)nc1O` [Example 21, 4-Hydroxy-2-phenyl-N-[1-(pyridin-2-ylmethyl)piperidin-4-yl]pyrimidine-5-carboxamide], 6.00. With `O=C(NC1CCN(c2ncc3c(n2)CCOC3)C1)c1cnc(-c2cccc(F)c2)nc1` (single isomer, unassigned) [Example 81b, N-(1-(7,8-Dihydro-5H-pyrano[4,3-d]pyrimidin-2-yl)pyrrolidin-3-yl)-2-(3-fluorophenyl)pyrimidine-5-carboxamide] the figure was 9.34; with `Cc1ccc(Cl)c(OCC(c2ccccc2)N2CCC(NC(=O)c3cnc(-c4cccc(F)c4)nc3)CC2)c1F` (stereo not drawn) [Example 43, N-{1-[2-(6-Chloro-2-fluoro-3-methylphenoxy)-1-phenylethyl]piperidin-4-yl}-2-(3-fluorophenyl)pyrimidine-5-carboxamide], 7.46; with `CS(=O)(=O)Nc1cccc(-c2ncc(C(=O)NC3CCN(Cc4ccccn4)CC3)cn2)c1` [Example 176, 2-{3-[(Methylsulfonyl)amino]phenyl}-N-[1-(pyridin-2-ylmethyl)piperidin-4-yl]pyrimidine-5-carboxamide], 5.57. In the case of `O=C(NC1CCN(c2cccnn2)CC1)c1cnc(-c2cccc(F)c2)nc1` [Example 26, 2-(3-Fluorophenyl)-N-(1-pyridazin-3-ylpiperidin-4-yl)pyrimidine-5-carboxamide] it was 9.87. For `CC(C)CN1CCC(NC(=O)c2cnc(-c3ccccc3)nc2N)CC1` [Example 15, 4-Amino-N-(1-isobutylpiperidin-4-yl)-2-phenyl-pyrimidine-5-carboxamide], the negative-log IC50 (pIC50) is not above 6.00. Consider `CN1CCc2nc(N3CC[C@H](NC(=O)c4cnc(-c5cccc(F)c5)nc4)C3)ncc2C1` [Example 78b, 2-(3-Fluorophenyl)-N-[(3S)-1-(6-methyl-5,6,7,8-tetrahydropyrido[4,3-d]pyrimidin-2-yl)pyrrolidin-3-yl]pyrimidine-5-carboxamide], for which the pIC50 is 9.00.

Regarding `O=C(NC1CCN(Cc2ccccc2C(F)(F)F)C1=O)c1cnc(-c2cccc(F)c2)nc1` (stereo not drawn) [Example 84, 2-(3-Fluorophenyl)-N-{2-oxo-1-[2-(trifluoromethyl)benzyl]pyrrolidin-3-yl}pyrimidine-5-carboxamide], the negative-log IC50 (pIC50) is 9.01. Take `O=C(NC1CN(c2cnc3ccccc3n2)C1)c1cnc(-c2cccc(F)c2)nc1` [Example 105, 2-(3-Fluorophenyl)-N-(1-quinoxalin-2-ylazetidin-3-yl)pyrimidine-5-carboxamide]: the negative-log IC50 (pIC50) is 9.44. With `CCCC(=O)N1CCC(NC(=O)c2cnc(-c3ccccc3)nc2C)CC1` [Example 5, N-(1-Butyrylpiperidin-4-yl)-4-methyl-2-phenylpyrimidine-5-carboxamide] the figure was 8.10.
